Data published in patent US5834461A, “Tricyclic benzazepine vasopressin antagonists” (American Cyanamid Company, priority 1997, dated 1998).

How the values were obtained:
[1] = molecular target: vasopressin V1 receptor (rat liver plasma membranes) (Rattus norvegicus, UniProt P30560); test: Binding Assay to Rat Hepatic V1 Receptors; conditions: for IC50: rat hepatic V1
[2] = molecular target: T1, oxytocin receptors (rat uterus membranes) (Rattus norvegicus, UniProt P70536); test: Oxytocin Receptor Binding; design: species or system female Sprague-Dawley rats
T1 construct: The resulting pellet containing the oxytocin receptors is resuspended; from tissue; host or cells: uterus membranes of DES-treated female Sprague-Dawley rats
T1 sequence (P70536 1-388): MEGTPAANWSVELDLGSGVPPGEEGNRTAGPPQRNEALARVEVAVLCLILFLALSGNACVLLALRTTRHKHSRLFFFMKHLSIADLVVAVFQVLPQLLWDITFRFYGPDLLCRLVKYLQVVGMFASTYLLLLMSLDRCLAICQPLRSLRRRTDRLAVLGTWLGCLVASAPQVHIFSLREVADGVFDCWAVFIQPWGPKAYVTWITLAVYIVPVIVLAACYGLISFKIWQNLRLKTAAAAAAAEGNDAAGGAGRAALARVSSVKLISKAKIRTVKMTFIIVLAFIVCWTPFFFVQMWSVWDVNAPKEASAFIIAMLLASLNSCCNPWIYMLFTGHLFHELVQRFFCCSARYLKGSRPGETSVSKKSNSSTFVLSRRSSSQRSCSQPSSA
Experimental: Female Sprague-Dawley rats weighing approximately 200-250 g are injected intramuscularly (i.m.) with 0.3 mg/kg of body weight of diethylstilbestrol (DES). The rats are sacrificed 18 hours later under pentobarbital anesthesia. The uteri are dissected out, cleaned of fat and connective tissues and rinsed in 50 ml of normal saline. The tissue pooled from six rats is homogenized in 50 ml of […] Tris.HCl, containing 0.5 mM dithiothreitol and 1.0 mM EDTA, adjusted to pH 7.4, using a polytron at setting 6 with three passes of 10 sec each. The homogenate is passed through two (2) layers of cheesecloth and the filtrate centrifuged at 1000×g for 10 min. The clear supernatant is removed and recentrifuged at 165,000×g for 30 min. The resulting pellet containing the oxytocin receptors is resuspended in 50.0 mM Tris.HCl containing 5.0 mM MgCl2 at pH 7.4, to give a protein concentration of 2.5 mg/ml of tissue suspension. This preparation is used in subsequent binding assays with [^3 H]Oxytocin.
Binding of 3,5-[^3 H]Oxytocin ([^3 H]OT) to its receptors is done in microtiter plates using [^3 H]OT, at various concentrations, in an assay buffer of 50.0 mM Tris.HCl, pH 7.4 and containing 5.0 mM MgCl2, and a mixture of protease inhibitors: BSA, 0.1 mg; aprotinin, 1.0 mg; 1,10-phenanthroline, 2.0 mg; […], 10.0 mg; and PMSF, 0.3 mg per 100 ml of buffer solution. Non-specific binding is determined in the presence of 1.0 uM unlabeled OT. The binding reaction is terminated after 60 min., at 22° C., by rapid filtration through glass fiber filters using a Brandel® cell harvester (Biomedical Research and Development Laboratories, Inc., Gaithersburg, Md.). Competition experiments are conducted at equilibrium using 1.0 nM [^3 H]OT and varying the concentration of the displacing agents. The concentrations of agent displacing 50% of [^3 H]OT at its sites (IC50) are calculated by a computer assisted LUNDON-2 program (LUNDON SOFTWARE INC., Ohio, USA).

vasopressin V1 receptor (rat liver plasma membranes), sequence (P30560 whole entry): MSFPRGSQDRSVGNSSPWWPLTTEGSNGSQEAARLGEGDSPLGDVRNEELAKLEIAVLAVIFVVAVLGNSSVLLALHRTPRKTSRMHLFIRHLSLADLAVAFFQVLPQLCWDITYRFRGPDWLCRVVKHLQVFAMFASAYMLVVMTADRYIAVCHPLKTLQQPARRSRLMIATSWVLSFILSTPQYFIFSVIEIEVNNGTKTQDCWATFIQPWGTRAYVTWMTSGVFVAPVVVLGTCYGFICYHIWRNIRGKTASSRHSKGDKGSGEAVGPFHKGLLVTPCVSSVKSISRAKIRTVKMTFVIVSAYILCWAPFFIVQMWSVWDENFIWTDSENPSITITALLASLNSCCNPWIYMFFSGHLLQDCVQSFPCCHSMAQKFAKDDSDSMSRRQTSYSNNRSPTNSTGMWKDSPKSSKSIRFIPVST

IC50 [1] | inhibition at 10 µM [2] | IC50 ([2]; second part of Table V) | IC50 ([2]; first part of Table V) | inhibition at 10 µM ([1]; 2 h, 10 μM, rat hepatic, read-out: V1, % at concentration in brackets) | SMILES
27 nM | 99% |  | 460 nM |  | O=C(Nc1ccc(C(=O)N2Cc3ccccc3Cc3ccccc32)cc1)C1CC=CCC1 (stereo not shown) [Example 255, N-[4-[(6,11-Dihydro-5H-dibenz[b,e]azepin-5-yl)-carbonyl]phenyl]-3-cyclohexene-1-carboxamide]
39 nM | 100% | 170 nM |  |  | Cc1ccc(F)cc1C(=O)Nc1ccc(C(=O)N2CCc3c[nH]nc3-c3ccccc32)cc1 [Example 584, N-[4-[(4.5-Dihydropyrazolo[4,3-d][1]benzazepin-6(2H)-yl)carbonyl]phenyl]-5-fluoro-2-methylbenzamide]
310 nM | 77% |  | 3100 nM |  | O=C(Nc1ccc(C(=O)N2Cc3ccccc3Cc3ccccc32)cc1)c1cccc(Cl)c1Cl [Example 253, N-[4-[(6,11-Dihydro-5H-dibenz[b,e]azepin-5-yl)-carbonyl]phenyl]-2,3-dichlorobenzamide]
 | 55% |  | 6200 nM |  | Cc1c(F)cccc1C(=O)Nc1ccc(C(=O)N2Cc3ccccc3Cc3ccccc32)cc1Cl [Example 262, N-[4-[(6,11-Dihydro-5H-dibenz[b,e]azepin-5-yl)-carbonyl]-2-chlorophenyl]-2-methyl-3-fluorobenzamide]
56 nM | 90% |  | 2000 nM |  | Cc1ccccc1C(=O)Nc1ccc(C(=O)N2Cc3ccccc3-c3ccccc32)cc1 [Example 5, 2-Methyl-N-[4-[(5(6H)-phenanthridinyl)carbonyl]phenyl]benzamide]
1500 nM | 77% |  |  |  | O=C(Nc1ccc(C(=O)N2Cc3ccccc3Cc3ccccc32)cc1)c1cc(Cl)cc(Cl)c1 [Example 251, N-(4-[(6,11-Dihydro-5H-dibenz[b,e]azepin-5-yl)-carbonyl]phenyl]-3,5-dichlorobenzamide]
4000 nM | 7% |  |  |  | Cc1cc(C(=O)N2Cc3ccccc3Cc3ccccc32)cc(C)c1NC(=O)c1ccc(Cl)cc1Cl [Example 259, N-[4-[(6,11-Dihydro-5H-dibenz[b,e]azepin-5-yl)-carbonyl]-2,6-dimethylphenyl]-2 4-dichlorobenzamide]
26 nM | 89% |  | 1100 nM |  | Cc1ccccc1C(=O)N(CN(C)C)c1ccc(C(=O)N2Cc3ccccc3Cc3ccccc32)cc1 [Example 267, N-[4-[(6,11-Dihydro-5H-dibenz[b,e]azepin-5-yl)-carbonyl]phenyl]-N-[(dimethylamino)methyl]-2-methylbenzamide]
 | 86% | 940 nM |  |  | Cc1nc2c(s1)CCN(C(=O)c1ccc(NC(=O)c3cc(F)ccc3C)cc1)c1ccccc1-2 [Example 534]
120 nM | 44% |  |  |  | Cc1ccccc1C(=O)Nc1ccc(C(=O)N2Cc3ccccc3Cc3ccccc32)c(Cl)c1 [Example 260, N-[4-[(6,11-Dihydro-5H-dibenz[b,e]azepin-5-yl)-carbonyl]-3-chlorophenyl]-2-methylbenzamide]

Second part, the compound before the results:

SMILES | IC50 [1] | inhibition at 10 µM [2] | IC50 ([2]; second part of Table V) | IC50 ([2]; first part of Table V) | inhibition at 10 µM ([1]; 2 h, 10 μM, rat hepatic, read-out: V1, % at concentration in brackets)
Cc1ccc(F)cc1C(=O)Nc1ccc(C(=O)N2CCc3c[nH]nc3-c3ccccc32)c(Cl)c1 [Example 581] | 740 nM | 95% | 475 nM |  | 
COc1cc(C(=O)N2Cc3ccccc3Cc3ccccc32)ccc1NC(=O)c1ccccc1C [Example 257, N-[4-[(6,11-Dihydro-5H-dibenz[b,e]azepin-5-yl)-carbonyl]-2-methoxyphenyl]-2-methylbenzamide] |  | 97% |  | 189 nM | 
COc1cc(C(=O)N2Cc3ccccc3Cc3ccccc32)ccc1NC(=O)c1ccc(Cl)cc1Cl [Example 263, N-[4-[(6,11-Dihydro-5H-dibenz[b,e]azepin-5-yl)-carbonyl]-2-methoxyphenyl]-2,4-dichlorobenzamide] |  | 94% |  | 260 nM | 
Cc1nc2c(s1)CCN(C(=O)c1ccc(NC(=O)c3ccc(Cl)cc3Cl)cc1)c1ccccc1-2 [Example 455, N-[4-(4,5-Dihydro-2-methyl-6H-thiazolo[5,4-d][1]-benzazepin-6-yl)carbonyl1phenyl]-2,4-dichlorobenzamide] |  | 88% | 1100 nM |  | 
COc1cc(C(=O)N2Cc3ccccc3Cc3ccccc32)ccc1NC(=O)c1cc(F)ccc1C [Example 261, N-[4-[(6,11-Dihydro-5H-dibenz[b,e]azepin-5-yl)-carbonyl]-2-methoxyphenyl]-2-methyl-5-fluorobenzamide] |  | 97% |  | 210 nM | 
CC(C)COc1ccc([N+](=O)[O-])cc1C(=O)Nc1ccc(C(=O)N2Cc3ccccc3Cc3ccccc32)cc1 [Example 453] |  |  | 3300 nM |  | 
O=C(Nc1ccc(C(=O)N2Cc3ccccc3Sc3ccccc32)cc1)c1ccccc1Cl [Example 448, N-[4-[(Dibenz[b,f][1,4]thiazepin-10(11H)yl)-carbonyl]phenyl]-2-chlorobenzamide] | 73 nM | 39% |  |  | 
Cc1ccccc1C(=O)Nc1c(C)cc(C(=O)N2Cc3ccccc3Cc3ccccc32)cc1C [Example 258, N-[4-[(6,11-Dihydro-5H-dibenz[b,e]azepin-5-yl)-carbonyl]-2,6-dimethylphenyl]-2-methylbenzamide] |  | 18% |  |  | 75%
Cc1ccccc1C(=O)Nc1ccc(C(=O)N2Cc3ccccc3Cc3ccccc32)cc1 [Example 2, N-[4-[(6,11-Dihydro-5H-dibenz[b,e]azepin-5-yl)carbonyl]phenyl]-2-methylbenzamide] | 150 nM | 73% |  | 2900 nM | 
Cc1ccccc1C(=O)Nc1ccc(C(=O)N2CCc3cn(C)nc3-c3ccccc32)cc1 [Example 379, N-[4-[(4,5-Dihydro-2-methylpyrazolo[4,3-d][1]-benzazepin-6(2H)-yl)carbonyl]phenyl]-2-methylbenzamide] | 250 nM | 96% |  | 810 nM | 
Cc1ncc2c(n1)-c1ccccc1N(C(=O)c1ccc(NC(=O)c3ccccc3C)cc1)CC2 [Example 416, N-[4-[(6,7-Dihydro-2-methyl-5H-pyrimido[5,4-d][1]-benzazepin-7-yl)carbonyl]phenyl]-2-methylbenzamide] | 34500 nM | 19% |  |  | 
